Tests used:
[1] = target: T1, E-selectin (Homo sapiens, UniProt P16581); assay: E-Selectin Activity - competitive binding assay (sLea polyacrylamide / immobilized E-selectin/Ig chimera); conditions: inhibition of sLea conjugate binding to immobilized E-selectin/Ig chimera; read-out: IC50 (E-Selectin Antagonist Activity)
T1 construct: fused on or other part: Immunoglobulin (Ig) part fused to E-selectin as a handle for immobilisation
T1 sequence (P16581 22-175 limits assumed): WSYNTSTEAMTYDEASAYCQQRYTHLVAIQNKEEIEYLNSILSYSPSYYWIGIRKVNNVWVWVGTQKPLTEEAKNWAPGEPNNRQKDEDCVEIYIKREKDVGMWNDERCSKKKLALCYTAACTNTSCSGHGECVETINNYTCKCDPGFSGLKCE
Description: The inhibition assay to screen and characterize antagonists of E-selectin is a competitive binding assay, from which IC50 values may be determined. E-selectin/Ig chimera are immobilized in 96 well microtiter plates by incubation at 37° C. for 2 hours. To reduce nonspecific binding, bovine serum albumin is added to each well and incubated at room temperature for 2 hours. The plate is washed and serial dilutions of the test compounds are added to the wells in the presence of conjugates of biotinylated, sLea polyacrylamide with streptavidin/horseradish peroxidase and incubated for 2 hours at room temperature.
To determine the amount of sLe^a bound to immobilized E-selectin after washing, the peroxidase substrate, 3,3′,5,5′ tetramethylbenzidine (TMB) is added. After 3 minutes, the enzyme reaction is stopped by the addition of H3PO4, and the absorbance of light at a wavelength of 450 nm is determined. The concentration of test compound required to inhibit binding by 50% is determined.

[2] = tested on: relapsed or refractory AML; assay: Phase I/II trial of Formula I in combination with chemotherapy for AML; format: in vivo, human; conditions: for overall survival (OS): Formula I plus chemotherapy
Description: Phase I/II trial of Formula I in combination with chemotherapy for AML: A specific glycomimetic antagonist of E-selectin (Formula I) was rationally designed based on the bioactive conformation of sialyl Le^a/x in the binding site of E-selectin. Treatment of AML relapsed/refractory patients with the compound of Formula I and chemotherapy were evaluated for response. In a Phase I trial, 19 patients were treated with the compound of Formula I twice a day at 5 mg/kg (n=6), 10 mg/kg (n=7), and 20 mg/kg doses (n=6), in combination with induction MEC (mitoxantrone, epotoside, and cytarabine) chemotherapy. In a Phase II trial, the treatment regimen comprised one 10 mg/kg dose of the compound of Formula I 24 hours prior to chemotherapy, then twice daily 10 mg/kg doses of the compound of Formula I throughout either MEC (mitoxantrone, etoposide, and cytarabine) or 7+3 (cytarabine for 7 days followed by 3 days of daunorubicin, idarubicin or mitoxantrone) chemotherapy up till 48 hours post-chemotherapy. AML blasts from the patients' bone marrow and peripheral blood were isolated, and the expression of E-selectin ligand on the blasts was measured using immunofluorescence. Patient response to treatment was also assessed.

SMILES | IC50 [1] | overall survival (OS) ([2]; patients with greater than 10% of blasts expressing E-selectin ligand (HECA-452; high expressers)) | overall survival (OS) ([2]; patients with less than 10% blasts expressing E-selectin ligand (HECA-452; low expressers)) | response rate (CR/CRi) ([2]; patients with relapsed or refractory AML, compound of Formula I plus chemotherapy) | CR/CRi rate after a single course of induction treatment ([2]; relapsed or refractory AML, single course of induction, higher than historical controls treated with MEC)
CCC1CC(C(=O)NCCNC(=O)c2cn(CC(COS(=O)(=O)O)(COS(=O)(=O)O)COS(=O)(=O)O)nn2)C[C@@H](O[C@@H]2OC(CO)[C@H](O)C(O[C@@H](CC3CCCCC3)C(=O)O)C2NC(=O)Cn2cc(COCCOCCOCCOCCOCc3cn(CC(=O)NC4C(O[C@@H](CC5CCCCC5)C(=O)O)[C@@H](O)C(CO)O[C@H]4O[C@@H]4CC(C(=O)NCCNC(=O)c5cn(CC(COS(=O)(=O)O)(COS(=O)(=O)O)COS(=O)(=O)O)nn5)CC(CC)C4O[C@@H]4OC(C)[C@@H](O)C(O)C4O)nn3)nn2)C1O[C@@H]1OC(C)[C@@H](O)C(O)C1O (some centres unmarked) [Compound 206] | 1.6 nM | – | – | – | –
CCC1CC(C(=O)NCCNC(=O)CCOCCOCCOCCOCCOCCOCCOCCOCCOCCOCCOCCOC)C[C@@H](O[C@@H]2O[C@@H](CO)[C@H](O)C(O[C@@H](CC3CCCCC3)C(=O)O)C2NC(C)=O)[C@@H]1OC1O[C@@H](C)[C@H](O)C(O)[C@@H]1O (some centres unmarked) [compound of Formula I] | – | 12.7 months | 5.2 months | 41% | 47%

Source: patent US20220265691A1, “METHODS FOR USE OF GENE EXPRESSION AS AN INDICATOR OF E-SELECTIN INHIBITOR EFFICACY AND CLINICAL OUTCOME FOR MULTIPLE TUMOR TYPES” (GLYCOMIMETICS, INC., priority 2019, published 2022)
